In article PMC3312006 (2011):

Columns and labels:
[1] = target: T1, histone acetyltransferase p300 (KAT3B) (Homo sapiens, UniProt Q09472); test: in vitro filter-binding HAT assay with […]acetyl-CoA and HeLa core histones; assay type: biochemical
T1 sequence (Q09472 1066-1707): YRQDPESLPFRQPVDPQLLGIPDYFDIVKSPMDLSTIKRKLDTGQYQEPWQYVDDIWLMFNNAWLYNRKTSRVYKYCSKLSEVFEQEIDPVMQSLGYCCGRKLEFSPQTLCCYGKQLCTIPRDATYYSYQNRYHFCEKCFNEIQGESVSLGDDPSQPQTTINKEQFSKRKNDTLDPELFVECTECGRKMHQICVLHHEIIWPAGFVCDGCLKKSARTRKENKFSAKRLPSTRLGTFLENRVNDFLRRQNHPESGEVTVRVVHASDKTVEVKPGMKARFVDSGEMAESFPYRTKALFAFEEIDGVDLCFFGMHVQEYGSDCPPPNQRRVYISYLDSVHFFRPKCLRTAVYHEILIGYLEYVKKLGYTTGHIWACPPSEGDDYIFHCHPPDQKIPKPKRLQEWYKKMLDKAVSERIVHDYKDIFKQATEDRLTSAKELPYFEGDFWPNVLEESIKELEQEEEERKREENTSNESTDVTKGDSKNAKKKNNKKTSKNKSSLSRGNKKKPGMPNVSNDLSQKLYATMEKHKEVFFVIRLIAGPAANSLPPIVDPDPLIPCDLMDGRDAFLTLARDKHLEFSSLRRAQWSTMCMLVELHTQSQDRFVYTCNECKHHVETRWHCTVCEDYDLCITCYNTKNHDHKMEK

[2] = target: T1, histone acetyltransferase p300 (KAT3B); test: biochemical

| IC50 [1] [nM] | IC50 [2] [nM] | Structure (SMILES) |
| --- | --- | --- |
| > 2000 |  | CCCCC[C@H](O)/C=C/[C@H]1C(=O)C=C[C@@H]1C/C=C\CCCC(=O)O [PGJ2] |
|  | ~750 | CCCCC[C@H](O)C/C=C1/C(=O)C=C[C@@H]1C/C=C\CCCC(=O)O [Δ^12-PGJ2] |
